Reference: the supplement of paper PMC10307832

Legend:
Assay in all cases: relative viability (nuclei count vs DMSO), 5 days (fraction); higher = more cells survive
[1] = test system: EKVX
Procedure, shortened: (§1)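 Nuclei were stained with Hoechst during a one-step fixation (final 0.05% Triton X-100, 1% formaldehyde, 1 ug/ml Hoechst) carried out 5 days after dosing, then counted on 4× images. The cells, lung cancer lines in 1536-well plates, had been dosed by pin tool the day after seeding with one drug alone or a fixed anchor-drug dose plus five library-drug doses (not always all listed) in √10 steps. Relative viability is the nuclei count in treated wells divided by that in vehicle wells, and each value is the median of duplicate plates.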

[2] = test system: HCC-44
Procedure, shortened: as §1

[3] = test system: NCI-H1648
Procedure, shortened: as §1

[4] = test system: NCI-H2085
Procedure, shortened: as §1

[5] = test system: NCI-H1993
Procedure, shortened: as §1

[6] = test system: RERF-LC-KJ
Procedure, shortened: as §1

[7] = test system: NCI-H2126
Procedure, shortened: as §1

[8] = test system: ABC-1
Procedure, shortened: as §1

For `O=c1cc(N2CCOCC2)oc2c(-c3cccc4c3sc3ccccc34)cccc12` + CC(=O)c1c(C)c2cnc(Nc3ccc(N4CCNCC4)cn3)nc2n(C2CCCC2)c1=O [Palbociclib] (partner 0.5 µM), the relative viability ([1]; first compound 0.01 µM) was 0.376, the relative viability ([1]; first compound 0.03162 µM) was 0.363 and the relative viability ([1]; first compound 0.1 µM) was 0.484. For the same molecule, the relative viability ([1]; first compound 0.3162 µM) was 0.43, the relative viability ([1]; first compound 1 µM) was 0.332 and the relative viability ([2]; first compound 0.01 µM) was 1.01. For the same molecule, the relative viability ([2]; first compound 0.03162 µM) was 1.02, the relative viability ([2]; first compound 0.1 µM) was 0.955 and the relative viability ([2]; first compound 0.3162 µM) was 0.991. For the same molecule, the relative viability ([2]; first compound 1 µM) was 1.02, the relative viability ([3]; first compound 0.03162 µM) was 0.261 and the relative viability ([3]; first compound 0.1 µM) was 0.273. It also gave a relative viability ([3]; first compound 0.3162 µM) of 0.284, a relative viability ([3]; first compound 1 µM) of 0.292 and a relative viability ([4]; first compound 0.01 µM) of 0.467. For the same molecule, the relative viability ([4]; first compound 0.03162 µM) was 0.455, the relative viability ([4]; first compound 0.1 µM) was 0.492 and the relative viability ([4]; first compound 0.3162 µM) was 0.512. For the same molecule, the relative viability ([4]; first compound 1 µM) was 0.452, the relative viability ([5]; first compound 0.01 µM) was 0.738 and the relative viability ([5]; first compound 0.03162 µM) was 0.6. It also gave a relative viability ([5]; first compound 0.1 µM) of 0.658, a relative viability ([5]; first compound 0.3162 µM) of 0.64 and a relative viability ([5]; first compound 1 µM) of 0.545. For the same molecule, the relative viability ([6]; first compound 0.01 µM) was 1.06, the relative viability ([6]; first compound 0.03162 µM) was 1.1 and the relative viability ([6]; first compound 0.1 µM) was 1.04. For the same molecule, the relative viability ([6]; first compound 0.3162 µM) was 1.09, the relative viability ([6]; first compound 1 µM) was 1.08 and the relative viability ([7]; first compound 0.01 µM) was 0.349. The relative viability ([7]; first compound 0.03162 µM) was 0.339, the relative viability ([7]; first compound 0.1 µM) was 0.318 and the relative viability ([7]; first compound 0.3162 µM) was 0.331. The relative viability ([7]; first compound 1 µM) was 0.345, the relative viability ([8]; first compound 0.01 µM) was 0.644 and the relative viability ([8]; first compound 0.03162 µM) was 0.797. The relative viability ([8]; first compound 0.1 µM) was 0.699, the relative viability ([8]; first compound 0.3162 µM) was 0.619 and the relative viability ([8]; first compound 1 µM) was 0.578.

`CCN(CC)CCCCNc1ncc2cc(-c3cc(OC)cc(OC)c3)c(NC(=O)NC(C)(C)C)nc2n1` + CC(=O)c1c(C)c2cnc(Nc3ccc(N4CCNCC4)cn3)nc2n(C2CCCC2)c1=O [Palbociclib] (partner 0.5 µM) was tested, and the relative viability ([1]; first compound 0.03162 µM) was 0.406, the relative viability ([1]; first compound 0.1 µM) was 0.31 and the relative viability ([1]; first compound 0.3162 µM) was 0.817. For the same molecule, the relative viability ([1]; first compound 1 µM) was 0.413, the relative viability ([2]; first compound 0.01 µM) was 1.02 and the relative viability ([2]; first compound 0.03162 µM) was 1.07. It also gave a relative viability ([2]; first compound 0.1 µM) of 0.987, a relative viability ([2]; first compound 0.3162 µM) of 1.04 and a relative viability ([2]; first compound 1 µM) of 1. It also gave a relative viability ([3]; first compound 0.01 µM) of 0.288, a relative viability ([3]; first compound 0.03162 µM) of 0.292 and a relative viability ([3]; first compound 0.1 µM) of 0.237. For the same molecule, the relative viability ([3]; first compound 0.3162 µM) was 0.274, the relative viability ([3]; first compound 1 µM) was 0.238 and the relative viability ([4]; first compound 0.01 µM) was 0.466. The relative viability ([4]; first compound 0.03162 µM) was 0.45, the relative viability ([4]; first compound 0.1 µM) was 0.443 and the relative viability ([4]; first compound 0.3162 µM) was 0.468. The relative viability ([4]; first compound 1 µM) was 0.457, the relative viability ([5]; first compound 0.01 µM) was 0.368 and the relative viability ([5]; first compound 0.03162 µM) was 0.763. For the same molecule, the relative viability ([5]; first compound 0.1 µM) was 0.791, the relative viability ([5]; first compound 0.3162 µM) was 0.661 and the relative viability ([5]; first compound 1 µM) was 0.738. It also gave a relative viability ([6]; first compound 0.01 µM) of 1.07, a relative viability ([6]; first compound 0.03162 µM) of 1.12 and a relative viability ([6]; first compound 0.1 µM) of 1.2. The relative viability ([6]; first compound 0.3162 µM) was 1.13, the relative viability ([6]; first compound 1 µM) was 1.05 and the relative viability ([7]; first compound 0.01 µM) was 0.353. It also gave a relative viability ([7]; first compound 0.03162 µM) of 0.37, a relative viability ([7]; first compound 0.1 µM) of 0.399 and a relative viability ([7]; first compound 0.3162 µM) of 0.345. The relative viability ([7]; first compound 1 µM) was 0.355, the relative viability ([8]; first compound 0.03162 µM) was 0.968 and the relative viability ([8]; first compound 0.1 µM) was 0.724. The relative viability ([8]; first compound 0.3162 µM) was 0.832 and the relative viability ([8]; first compound 1 µM) was 0.574.

In the case of `O=c1cc(-c2cccc3c2Sc2ccccc2S3)oc(N2CCOCC2)c1` + CC(=O)c1c(C)c2cnc(Nc3ccc(N4CCNCC4)cn3)nc2n(C2CCCC2)c1=O [Palbociclib] (partner 0.5 µM), the relative viability ([1]; first compound 0.08 µM) is reported as 0.582, the relative viability ([1]; first compound 0.253 µM) is reported as 0.657 and the relative viability ([1]; first compound 0.8 µM) is reported as 0.345. The relative viability ([1]; first compound 2.53 µM) was 0.321, the relative viability ([1]; first compound 8 µM) was 0.399 and the relative viability ([2]; first compound 0.08 µM) was 0.965. It also gave a relative viability ([2]; first compound 0.253 µM) of 0.918, a relative viability ([2]; first compound 0.8 µM) of 0.919 and a relative viability ([2]; first compound 2.53 µM) of 0.958. For the same molecule, the relative viability ([2]; first compound 8 µM) was 0.962, the relative viability ([3]; first compound 0.253 µM) was 0.324 and the relative viability ([3]; first compound 0.8 µM) was 0.281. The relative viability ([3]; first compound 8 µM) was 0.302, the relative viability ([4]; first compound 0.08 µM) was 0.431 and the relative viability ([4]; first compound 0.253 µM) was 0.508. The relative viability ([4]; first compound 0.8 µM) was 0.471, the relative viability ([4]; first compound 2.53 µM) was 0.467 and the relative viability ([4]; first compound 8 µM) was 0.412. It also gave a relative viability ([5]; first compound 0.08 µM) of 0.632, a relative viability ([5]; first compound 0.253 µM) of 0.674 and a relative viability ([5]; first compound 0.8 µM) of 0.526. The relative viability ([5]; first compound 2.53 µM) was 0.599, the relative viability ([5]; first compound 8 µM) was 0.709 and the relative viability ([6]; first compound 0.08 µM) was 1.11. The relative viability ([6]; first compound 0.253 µM) was 1.32, the relative viability ([6]; first compound 0.8 µM) was 1.08 and the relative viability ([6]; first compound 2.53 µM) was 1.04. The relative viability ([6]; first compound 8 µM) was 0.971, the relative viability ([7]; first compound 0.08 µM) was 0.393 and the relative viability ([7]; first compound 0.253 µM) was 0.361. The relative viability ([7]; first compound 0.8 µM) was 0.357, the relative viability ([7]; first compound 2.53 µM) was 0.358 and the relative viability ([7]; first compound 8 µM) was 0.357. It also gave a relative viability ([8]; first compound 0.08 µM) of 1.04, a relative viability ([8]; first compound 0.253 µM) of 0.836 and a relative viability ([8]; first compound 0.8 µM) of 0.474. The relative viability ([8]; first compound 2.53 µM) was 0.767 and the relative viability ([8]; first compound 8 µM) was 0.674.
